Laboratory results reported in ChEMBL document CHEMBL1201862, “PubChem BioAssay data set” (2004).
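All cell lines were grown in 96-well plates and treated with compound for 48 hours. GI50 is the concentration that inhibits growth by half.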 Active and inactive are the calls of the source. Rule as the data show it: active = GI50 up to about 1.1 µM and inactive = higher.

Assays:
Assay in all cases: inhibition of tumour cell growth, NCI panel, 48 h
TK-10 = system: TK-10
NCI-H460 = system: NCI-H460
COLO 205 = system: COLO 205
NCI-H23 = system: NCI-H23
SN12C = system: SN12C
M14 = system: M14
ACHN = system: ACHN
HCT-15 = system: HCT-15
OVCAR-8 = system: OVCAR-8
SF-295 = system: SF-295
IGROV-1 = system: IGROV-1
SR = system: SR
NCI-H522 = system: NCI-H522
SNB-19 = system: SNB-19
NCI-H226 = system: NCI-H226
U-251 = system: U-251
UACC-62 = system: UACC-62
A498 = system: A498
HOP-92 = system: HOP-92

CCn1cnc2c(=S)nc(N)[nH]c21
GI50 (TK-10): > 100 µM (inactive) | GI50 (NCI-H460): > 100 µM (inactive) | GI50 (COLO 205): > 100 µM (inactive) | GI50 (NCI-H23): > 100 µM (inactive) | GI50 (SN12C): > 100 µM (inactive) | GI50 (M14): > 100 µM (inactive) | GI50 (ACHN): > 100 µM (inactive) | GI50 (HCT-15): > 100 µM | GI50 (OVCAR-8): > 100 µM (inactive) | GI50 (SF-295): > 100 µM (inactive) | GI50 (IGROV-1): > 100 µM (inactive) | GI50 (SR): > 100 µM (inactive) | GI50 (NCI-H522): > 100 µM (inactive) | GI50 (SNB-19): > 100 µM (inactive) | GI50 (NCI-H226): > 100 µM (inactive) | GI50 (U-251): > 100 µM (inactive) | GI50 (UACC-62): > 100 µM (inactive)

O=C1/C(=C/c2ccc3c(c2)OCO3)SC2C=Nc3ccccc3N12 (centres undefined)
GI50 (TK-10): > 100 µM (inactive) | GI50 (NCI-H460): > 100 µM (inactive) | GI50 (COLO 205): > 100 µM (inactive) | GI50 (NCI-H23): > 100 µM (inactive) | GI50 (SN12C): > 100 µM (inactive) | GI50 (M14): > 100 µM (inactive) | GI50 (ACHN): > 100 µM (inactive) | GI50 (HCT-15): > 100 µM | GI50 (OVCAR-8): > 100 µM (inactive) | GI50 (SF-295): > 100 µM (inactive) | GI50 (IGROV-1): > 100 µM (inactive) | GI50 (A498): > 100 µM (inactive) | GI50 (HOP-92): > 100 µM (inactive) | GI50 (NCI-H522): > 100 µM (inactive) | GI50 (SNB-19): > 100 µM (inactive) | GI50 (NCI-H226): > 100 µM (inactive) | GI50 (U-251): > 100 µM (inactive) | GI50 (UACC-62): 54.8 µM (inactive)

CC1(C)O[C@@H]([C@@H](O)[C@H](O)C2SCCCS2)[C@@H](CO)O1
GI50 (TK-10): > 100 µM (inactive) | GI50 (NCI-H460): > 100 µM (inactive) | GI50 (COLO 205): > 100 µM (inactive) | GI50 (NCI-H23): > 100 µM (inactive) | GI50 (SN12C): > 100 µM (inactive) | GI50 (M14): > 100 µM (inactive) | GI50 (ACHN): > 100 µM (inactive) | GI50 (HCT-15): > 100 µM | GI50 (OVCAR-8): > 100 µM (inactive) | GI50 (SF-295): > 100 µM (inactive) | GI50 (IGROV-1): > 100 µM (inactive) | GI50 (A498): > 100 µM (inactive) | GI50 (HOP-92): > 100 µM (inactive) | GI50 (NCI-H522): > 100 µM (inactive) | GI50 (SNB-19): > 100 µM (inactive) | GI50 (NCI-H226): > 100 µM (inactive) | GI50 (U-251): > 100 µM (inactive) | GI50 (UACC-62): > 100 µM (inactive)

CN(C)CCNC(=O)c1cccc2c1nc(-c1ccccn1)c1ccccc12
GI50 (TK-10): > 10 µM (inactive) | GI50 (NCI-H460): 7.26 µM (inactive) | GI50 (COLO 205): 12.3 µM (inactive) | GI50 (NCI-H23): 15.7 µM (inactive) | GI50 (SN12C): 23.9 µM (inactive) | GI50 (M14): 15.8 µM (inactive) | GI50 (ACHN): 15.5 µM (inactive) | GI50 (HCT-15): 13.8 µM | GI50 (OVCAR-8): 16 µM (inactive) | GI50 (SF-295): 17.6 µM (inactive) | GI50 (IGROV-1): 16.1 µM (inactive) | GI50 (A498): 13.6 µM (inactive) | GI50 (HOP-92): 18.6 µM (inactive) | GI50 (SNB-19): 30.7 µM (inactive) | GI50 (NCI-H226): > 10 µM (inactive) | GI50 (U-251): 16.3 µM (inactive) | GI50 (UACC-62): 17.1 µM (inactive)

O=C(c1ccc(Cl)cc1)c1ccc(OCCCOc2ccc(C(=O)c3ccc(Cl)cc3)cc2)cc1
GI50 (TK-10): > 100 µM (inactive) | GI50 (NCI-H460): > 100 µM (inactive) | GI50 (COLO 205): > 100 µM (inactive) | GI50 (NCI-H23): > 100 µM (inactive) | GI50 (SN12C): > 100 µM (inactive) | GI50 (M14): > 100 µM (inactive) | GI50 (ACHN): > 100 µM (inactive) | GI50 (HCT-15): > 100 µM | GI50 (OVCAR-8): > 100 µM (inactive) | GI50 (SF-295): > 100 µM (inactive) | GI50 (IGROV-1): > 100 µM (inactive) | GI50 (SR): > 100 µM (inactive) | GI50 (HOP-92): 78.9 µM (inactive) | GI50 (NCI-H522): > 100 µM (inactive) | GI50 (SNB-19): > 100 µM (inactive) | GI50 (NCI-H226): > 100 µM (inactive) | GI50 (U-251): > 100 µM (inactive) | GI50 (UACC-62): > 100 µM (inactive)

O=C(Nc1ccc(Br)cc1)C(=O)C(C(=O)c1ccccc1F)C1OC(=O)c2ccccc21 (centres undefined)
GI50 (TK-10): 50.5 µM (inactive) | GI50 (NCI-H460): 31.8 µM (inactive) | GI50 (COLO 205): 20.4 µM (inactive) | GI50 (NCI-H23): 17.9 µM (inactive) | GI50 (SN12C): 27.9 µM (inactive) | GI50 (M14): 16.5 µM (inactive) | GI50 (ACHN): 38.5 µM (inactive) | GI50 (HCT-15): 28.8 µM | GI50 (OVCAR-8): 24.8 µM (inactive) | GI50 (IGROV-1): 31.4 µM (inactive) | GI50 (A498): 40.1 µM (inactive) | GI50 (HOP-92): 27.7 µM (inactive) | GI50 (NCI-H522): 20.7 µM (inactive) | GI50 (SNB-19): 20.3 µM (inactive) | GI50 (NCI-H226): 3.48 µM (inactive) | GI50 (U-251): 19.3 µM (inactive) | GI50 (UACC-62): 14 µM (inactive)

C#Cc1cccc(N2C(=O)CC(=P(c3ccccc3)(c3ccccc3)c3ccccc3)C2=O)c1
GI50 (TK-10): > 100 µM (inactive) | GI50 (NCI-H460): 97.5 µM (inactive) | GI50 (COLO 205): 44.9 µM (inactive) | GI50 (NCI-H23): 40.7 µM (inactive) | GI50 (SN12C): > 100 µM (inactive) | GI50 (M14): 47.6 µM (inactive) | GI50 (ACHN): > 100 µM (inactive) | GI50 (OVCAR-8): > 100 µM (inactive) | GI50 (SF-295): > 100 µM (inactive) | GI50 (A498): > 100 µM (inactive) | GI50 (SR): 39.4 µM (inactive) | GI50 (NCI-H522): 25 µM (inactive) | GI50 (SNB-19): 69 µM (inactive) | GI50 (NCI-H226): 58.2 µM (inactive) | GI50 (U-251): 71.8 µM (inactive) | GI50 (UACC-62): 29.3 µM (inactive)

CC1(c2ccccc2)CC12C(=O)NC(=O)NC2=O (centres undefined)
GI50 (TK-10): > 100 µM (inactive) | GI50 (NCI-H460): > 10 µM (inactive) | GI50 (COLO 205): > 100 µM (inactive) | GI50 (NCI-H23): > 100 µM (inactive) | GI50 (SN12C): > 100 µM (inactive) | GI50 (M14): > 100 µM (inactive) | GI50 (ACHN): > 100 µM (inactive) | GI50 (HCT-15): > 100 µM | GI50 (OVCAR-8): > 100 µM (inactive) | GI50 (SF-295): > 100 µM (inactive) | GI50 (IGROV-1): > 100 µM (inactive) | GI50 (SR): > 100 µM (inactive) | GI50 (HOP-92): > 100 µM (inactive) | GI50 (NCI-H522): > 100 µM (inactive) | GI50 (SNB-19): > 100 µM (inactive) | GI50 (NCI-H226): > 100 µM (inactive) | GI50 (U-251): > 100 µM (inactive) | GI50 (UACC-62): > 100 µM (inactive)

O=C(c1nc2ccc(Cl)cc2[nH]c1=O)C(O)c1ccco1 (centres undefined)
GI50 (TK-10): > 100 µM (inactive) | GI50 (NCI-H460): 57.9 µM (inactive) | GI50 (COLO 205): > 100 µM (inactive) | GI50 (NCI-H23): > 100 µM (inactive) | GI50 (M14): 29.4 µM (inactive) | GI50 (ACHN): 38.6 µM (inactive) | GI50 (HCT-15): 15.5 µM | GI50 (SF-295): > 100 µM (inactive) | GI50 (IGROV-1): 45.9 µM (inactive) | GI50 (HOP-92): > 100 µM (inactive) | GI50 (NCI-H522): 1.9 µM (inactive) | GI50 (SNB-19): > 100 µM (inactive) | GI50 (NCI-H226): > 100 µM (inactive) | GI50 (UACC-62): 40.4 µM (inactive)

O=C(O)CSc1nnc(-c2ccco2)[nH]1
GI50 (TK-10): > 100 µM (inactive) | GI50 (NCI-H460): > 100 µM (inactive) | GI50 (COLO 205): > 100 µM (inactive) | GI50 (NCI-H23): > 100 µM (inactive) | GI50 (SN12C): > 100 µM (inactive) | GI50 (M14): > 100 µM (inactive) | GI50 (ACHN): > 100 µM (inactive) | GI50 (OVCAR-8): > 100 µM (inactive) | GI50 (SF-295): > 100 µM (inactive) | GI50 (IGROV-1): > 100 µM (inactive) | GI50 (A498): > 100 µM (inactive) | GI50 (HOP-92): > 100 µM (inactive) | GI50 (NCI-H522): > 100 µM (inactive) | GI50 (SNB-19): > 100 µM (inactive) | GI50 (NCI-H226): > 100 µM (inactive) | GI50 (U-251): > 100 µM (inactive) | GI50 (UACC-62): > 100 µM (inactive)

Cc1ccc(-c2cc(-c3ccco3)c(C#N)c(O)n2)cc1
GI50 (TK-10): > 100 µM (inactive) | GI50 (NCI-H460): > 100 µM (inactive) | GI50 (COLO 205): > 100 µM (inactive) | GI50 (NCI-H23): > 100 µM (inactive) | GI50 (SN12C): > 100 µM (inactive) | GI50 (M14): > 100 µM (inactive) | GI50 (ACHN): > 100 µM (inactive) | GI50 (HCT-15): > 100 µM | GI50 (OVCAR-8): > 100 µM (inactive) | GI50 (SF-295): > 100 µM (inactive) | GI50 (IGROV-1): > 100 µM (inactive) | GI50 (A498): > 100 µM (inactive) | GI50 (HOP-92): > 100 µM (inactive) | GI50 (NCI-H522): > 100 µM (inactive) | GI50 (SNB-19): > 100 µM (inactive) | GI50 (NCI-H226): > 100 µM (inactive) | GI50 (U-251): 82.8 µM (inactive) | GI50 (UACC-62): > 100 µM (inactive)

COc1ccc(N(C)Sc2ccccc2)cc1
GI50 (TK-10): > 100 µM (inactive) | GI50 (NCI-H460): 74.5 µM (inactive) | GI50 (COLO 205): > 100 µM (inactive) | GI50 (NCI-H23): 83.4 µM (inactive) | GI50 (SN12C): 21.1 µM (inactive) | GI50 (M14): 52.5 µM (inactive) | GI50 (HCT-15): 38.1 µM | GI50 (OVCAR-8): 49.9 µM (inactive) | GI50 (SF-295): 55.1 µM (inactive) | GI50 (IGROV-1): 19.9 µM (inactive) | GI50 (SR): 43.7 µM (inactive) | GI50 (HOP-92): 79.8 µM (inactive) | GI50 (NCI-H522): 38.8 µM (inactive) | GI50 (SNB-19): 51.1 µM (inactive) | GI50 (U-251): 32.8 µM (inactive) | GI50 (UACC-62): 34.7 µM (inactive)
